For one assay, the target named is dopamine receptors. Briefly: Affinity for dopamine receptors with the dopamine antagonist [^3 H]spiperone (RBSP). Format: binding. The conditions noted are these: in vitro. The method, then: (§1) Sigma binding affinities are measured using [^3 H]-(+)-3-(3'-hydroxyphenyl) N (1'-propyl)piperidine, referred to in the following Table I as 3PPP. This test is carried out according to the procedures of B. L. Largent, et al, Proc. Natl. Acad. Sci., USA, 1984; 81:5618. The affinity of the compounds of the present invention for dopamine receptors was determined in vitro with the dopamine antagonist [^3 H]spiperone according to the procedure of S. Urwyler, et al, J. Neurochem. 1986; 46:1058. The ability of the compounds to bind muscarinic antagonist sites was determined in vitro using [^3 H]-quinuclidinyl benzylate (RQNB) according to the procedure of M. Watson, et al, J. Pharmacol. Exp. Ther. 1986; 237:411.

In another assay the target is sigma binding site. Briefly: Sigma binding affinity using [^3 H]-(+)-3-(3'-hydroxyphenyl) N (1'-propyl)piperidine ([^3 H]3PPP). The note with it: [^3 H]3PPP radioligand, in vitro. How it is done:
as §1

In assay [1] the test system is muscarinic antagonist sites. Briefly: Binding to muscarinic antagonist sites using [^3 H]-quinuclidinyl benzylate (RQNB). The note with it: in vitro. The method, then:
as §1

Broadly, the IC50 is the concentration that inhibits the measured activity by half. A low value points to greater potency in that assay. In the case of `CCCN1CC=CC(CCC(=NO)c2ccccc2)C1.O=C(O)C(=O)O` (stereo not drawn) [1(e)(a), 1-Phenyl-3-(1,2,3,6-tetrahydro-1-propyl-3-pyridinyl)-1-propanone oxime oxalate], the IC50 against dopamine receptors is above 1000 nM; at sigma binding site, 2.07 nM. Besides, in assay [1], the “RQNB % Inhib at 10^-6 M” value amounted to 27%.
For `CCCN1CCC=C(CCC(=NO)c2ccccc2)C1.O=C(O)C(=O)O` [1(e)(b), 1-Phenyl-3-(1,2,5,6-tetrahydro-1-propyl-3-pyridinyl)-1-propanone oxime oxalate], the IC50 at dopamine receptors was above 1000 nM; on sigma binding site, 1.99 nM. In addition, in assay [1], the “RQNB % Inhib at 10^-6 M” value is reported as 10%.
Take `CCCN1CC=CC(CCC(=NO)c2ccc(OC)cc2)C1.O=C(O)C(=O)O` (stereo not drawn) [2(e)(a), 1-(4-Methoxyphenyl)-3-(1,2,3,6-tetrahydro-1-propyl-3-pyridinyl)-1-propanoneoxime oxalate]: the IC50 at dopamine receptors was above 1000 nM; at sigma binding site, 6.49 nM. Besides, in assay [1], the “RQNB % Inhib at 10^-6 M” value came to 6%.
The matching figures for `CCCN1CCC=C(CCC(=NO)c2ccc(OC)cc2)C1.O=C(O)C(=O)O` [2(e)(b), 1-(4-Methoxyphenyl)-3-(1,2,5,6-tetrahydro-1-propyl-3-pyridinyl)-1-propanone oxime oxalate]: above 1000 nM, 2.39 nM and 9%.

The values are drawn from patent publication US5208343A, “Tetrahydropyridine oxime compounds” (Warner-Lambert Company, priority 1992, dated 1993).
